Usually half-life stands for the time needed for the level to fall by half in the phase considered. The solubility is the concentration that dissolves in the medium under given conditions.

The values that follow come from ChEMBL document CHEMBL4033713, “Click strategy using disodium salts of amino acids improves the water solubility of plinabulin and KPU-300” (Bioorg Med Chem, 2017).

Data set [1] deals with T1, Liver carboxylesterase (Sus scrofa, UniProt Q29550).
T1 sequence (Q29550 whole entry): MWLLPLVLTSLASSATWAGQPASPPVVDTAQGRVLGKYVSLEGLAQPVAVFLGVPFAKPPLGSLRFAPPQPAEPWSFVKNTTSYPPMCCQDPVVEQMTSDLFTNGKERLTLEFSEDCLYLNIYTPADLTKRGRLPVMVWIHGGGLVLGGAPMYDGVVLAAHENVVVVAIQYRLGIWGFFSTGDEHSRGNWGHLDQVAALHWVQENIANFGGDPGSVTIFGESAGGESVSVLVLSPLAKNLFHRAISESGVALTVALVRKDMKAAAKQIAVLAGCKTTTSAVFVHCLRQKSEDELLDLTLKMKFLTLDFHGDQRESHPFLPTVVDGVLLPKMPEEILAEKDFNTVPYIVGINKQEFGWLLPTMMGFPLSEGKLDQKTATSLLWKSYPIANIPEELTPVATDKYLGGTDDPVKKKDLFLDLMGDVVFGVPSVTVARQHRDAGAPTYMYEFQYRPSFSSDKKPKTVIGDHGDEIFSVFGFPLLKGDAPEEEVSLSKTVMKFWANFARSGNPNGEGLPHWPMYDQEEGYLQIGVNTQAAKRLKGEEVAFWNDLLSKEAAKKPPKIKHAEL
Kind of data set: Drug metabolism assessed as porcine liver carboxylic-ester hydrolase-mediated compound hydrolysis by measuring half-life by HPLC analysis. Type of data set: ADME. The note with it: pig, porcine liver carboxylic-ester hydrolase (liver esterase).

A short description of data set [2]: Solubility of the compound in distilled water after 15 mins by HPLC method. It is filed as physicochemical.
Data set [3] in a line: Solubility of the compound in water. It is filed as physicochemical.
Data set [4] addresses T1, Liver carboxylesterase. Kind of data set: Drug level treated with Sodium (S)-2-(4-(4-((((3Z,6Z)-6-(3-benzoylbenzylidene)-5-oxo-3-(pyridine-2-ylmethylene)-3,4,5,6-tetrahydropyrazin-2-yl)oxy)methoxy)-4-oxobutyl)-1H-1,2,3-triazol-1-yl)succinate assessed as porcine liver carboxylic-ester hydrolase-mediated metabolite formation after 48 hrs by HPLC method. Type of data set: ADME. Conditions: pig.

The target of data set [5] is T1, Liver carboxylesterase. Kind of data set: Stability of the compound assessed as porcine liver esterase-mediated hydrolysis by measuring compound remaining after 48 hrs by HPLC method. It is filed as ADME. Conditions: pig, read-out: Stability.
Data set [6] has as its target T1, Liver carboxylesterase. In words: Drug level treated with Sodium (S)-2-(4-(4-((((3Z,6Z)-6-benzylidene-3-((5-(tertbutyl)-1H-imidazol-4-yl)methylene)-5-oxo-3,4,5,6-tetrahydropyrazin-2-yl)oxy)methoxy)-4-oxobutyl)-1H-1,2,3-triazol-1-yl)pentanedioate assessed as porcine liver carboxylic-ester hydrolase-mediated metabolite formation after 48 hrs by HPLC method. Conditions: pig.

Data set [7] addresses T1, Liver carboxylesterase. Kind of data set: Drug metabolism assessed as porcine liver carboxylic-ester hydrolase-mediated compound hydrolysis by measuring half-life at 500 ug by HPLC analysis. Type of data set: ADME. The note with it: pig, porcine liver carboxylic-ester hydrolase (liver esterase).
For data set [8], the target named is T1, Liver carboxylesterase. In words: Drug level treated with Sodium (S)-2-(4-(4-((((3Z,6Z)-6-benzylidene-3-((5-(tertbutyl)-1H-imidazol-4-yl)methylene)-5-oxo-3,4,5,6-tetrahydropyrazin-2-yl)oxy)methoxy)-4-oxobutyl)-1H-1,2,3-triazol-1-yl)succinate assessed as porcine liver carboxylic-ester hydrolase-mediated metabolite formation after 48 hrs by HPLC method. Type of data set: ADME. The note with it: pig.

In brackets after ≈: the same amount, converted by molar mass.

Regarding `CC(C)(C)c1[nH]cnc1/C=c1\[nH]c(=O)/c(=C/c2ccccc2)nc1OCOC(=O)CCCc1cn([C@@H](CC(=O)[O-])C(=O)[O-])nn1.[Na+].[Na+]`, the half-life at Liver carboxylesterase [1] is 12 h. The compound also had a solubility at 0.25 h in data set [2] above 100 mg/mL.
`CC(C)(C)c1[nH]cnc1/C=c1\[nH]c(=O)/c(=C/c2ccccc2)nc1OCOC(=O)CCCc1cn([C@@H]2O[C@H](CO)[C@H](O)[C@H](O)[C@H]2O)nn1` yielded a solubility at 0.25 h in data set [2] of 0.0075 mg/mL (≈ 11.3 µM).
With `O=C(c1ccccc1)c1cccc(/C=c2\[nH]c(=O)/c(=C/c3ccccn3)[nH]c2=O)c1`, in data set [3], the solubility was below 0.0001 mg/mL. On Liver carboxylesterase [4], the Drug metabolism result is reported as “Metabolite_Detected”.
Regarding `O=C(O)CC(C(=O)O)n1cc(CCCC(=O)OCOc2n/c(=C\c3cccc(C(=O)c4ccccc4)c3)c(=O)[nH]/c2=C\c2ccccn2)nn1` (single isomer, unassigned), on Liver carboxylesterase [1], the half-life was 8.7 h. The remaining at 48 h at Liver carboxylesterase [5] is 20%. Besides, in data set [2], the solubility at 0.25 h was found to be 80 mg/mL (≈ 118000 µM).
As to `CC(C)(C)c1[nH]cnc1/C=c1\[nH]c(=O)/c(=C/c2ccccc2)nc1OCOC(=O)CCCc1cn([C@@H](CCC(=O)[O-])C(=O)[O-])nn1.[Na+].[Na+]`, the half-life on Liver carboxylesterase [1] was 5.4 h. The compound also yielded a solubility at 0.25 h in data set [2] above 100 mg/mL.
`C=O` [FORMALDEHYDE]: the Drug metabolism entry at Liver carboxylesterase [6] is “Metabolite_Detected”.
Consider `CC(C)(C)c1[nH]cnc1/C=c1\[nH]c(=O)/c(=C/c2ccccc2)nc1OCOC(=O)CCCc1cn([C@@H](CO)C(=O)[O-])nn1.[Na+]`, for which the half-life at Liver carboxylesterase [1] was 1 h. For the same compound, in data set [3], the concentration in solution (solubility) was 6.38 mg/mL.
For `CC(C)(C)c1[nH]cnc1/C=c1\[nH]c(=O)/c(=C/c2ccccc2)nc1OCOC(=O)CCCc1cn([C@H](CCC(=O)[O-])C(=O)[O-])nn1.[Na+].[Na+]`, on Liver carboxylesterase [1], the half-life is 9 h. In data set [2], this compound returned a solubility at 0.25 h above 100 mg/mL.
In the case of `CC(C)(C)c1[nH]cnc1/C=c1\[nH]c(=O)/c(=C/c2ccccc2)nc1OCOC(=O)CCCc1cn(C[C@H](O)CC(=O)[O-])nn1.[Na+]`, the half-life at Liver carboxylesterase [7] is 0.37 h. For the same compound, the solubility at 0.25 h in data set [2] came to 0.85 mg/mL.
`CC(C)(C)c1[nH]cnc1/C=c1\[nH]c(=O)/c(=C/c2ccccc2)nc1OCOC(=O)CCCc1cn(CC(=O)[O-])nn1.[Na+]` had a solubility at 0.25 h in data set [2] of 0.59 mg/mL.
Consider `CC(C)(C)c1[nH]cnc1/C=c1\[nH]c(=O)/c(=C/c2ccccc2)[nH]c1=O` [PLINABULIN], for which, in data set [3], the solubility was below 0.0001 mg/mL. Also, the Drug metabolism result at Liver carboxylesterase [6] and at Liver carboxylesterase [8] was “Metabolite_Detected” throughout.
